Measured values published in patent US7645779B2, “Linked biaryl compounds” (Amgen Inc., priority 2001, dated 2010).

Test system: High Cholesterol Fed Rats
Test: HDL Cholesterol Assay in High Cholesterol Fed Rats
Format: in vivo, Male Sprague-Dawley rats
Conditions: Rattus norvegicus, 168 h, oral once a day over the final 7 days of a 14-day high cholesterol diet, HDL increase relative to the vehicle, read-out: Serum HDL cholesterol levels (% of increase) at 30 mg/kg
Procedure: HDL Cholesterol Assay in High Cholesterol Fed Rats
Male Sprague-Dawley rats (BW: 100-120 g) were fed a high cholesterol diet (1.25% cholesterol, 0.5% cholic acid and 10% coconut oil) for 14 days. The animals were orally dosed with test compounds suspended to 0.5% methylcellulose solution once a day over the final 7 days. Typical doses of test compounds were 1-30 mg/kg/day.
After 7 days of treatment, serum HDL cholesterol concentration was determined from blood obtained by tail bleeds. HDL cholesterol determination was performed on a Hitachi 7170 automatic analyzer.
Serum HDL cholesterol level (% of increase) refers to the rate of HDL increase relative to the vehicle and was calculated as follows: […]

Cc1cc(Sc2ccc(OCc3ccc(C(F)(F)F)cc3)cc2)ccc1OCC(=O)O [Compound 8] and Cc1cc(Sc2ccc(COc3ccc(C(F)(F)F)cc3)cc2)ccc1OCC(=O)O [Compound 7, 4-[[4-[(4-trifluoromethylphenoxy)methyl]phenyl]sulfanyl]-2-methylphenoxy-acetic acid] cannot be ordered by change in vivo at 30 mg/kg: greater than 100% for the first, no more than 100% for the second.

CCCc1cc(Sc2ccc(OCc3ccc(C(F)(F)F)cc3)c(C)c2)ccc1OCC(=O)O [Compound 4, 4-[[3-methyl-4-(4-trifluoromethyl-benzyloxy)phenyl]sulfanyl]-2-propylphenoxy-acetic acid] and Cc1cc(Sc2ccc(OCc3ccc(C(F)(F)F)cc3)c(C)c2)ccc1OCC(=O)O [Compound 1, {2-methyl-4-[3-methyl-4-(4-trifluoromethyl-benzyloxy)-phenylsulfanyl]-phenoxy}-acetic acid] cannot be ordered by change in vivo at 30 mg/kg: greater than 100% for the first, greater than 100% for the second.

Cc1cc(COc2ccc(C(F)(F)F)cc2)ccc1Sc1ccc(OCC(=O)O)cc1C [Compound 11] and Cc1cc(Sc2ccc(COc3ccc(C(F)(F)F)cc3)cc2Cl)ccc1OCC(=O)O [Compound 10, 4-[[2-chloro-4-[(4-trifluoromethylphenoxy)methyl]phenyl]sulfanyl]-2-methylphenoxy-acetic acid] cannot be ordered by change in vivo at 30 mg/kg: greater than 100% for the first, no more than 100% for the second.

Cc1cc(Sc2ccc(OCC(=O)O)c3ccccc23)ccc1OCc1ccc(C(F)(F)F)cc1 [Compound 9] and Cc1cc(S(=O)(=O)c2ccc(OCc3ccc(C(F)(F)F)cc3)cc2C)ccc1OCC(=O)O [Compound 5, 4-[[2-methyl-4-(4-trifluoromethyl-benzyloxy)phenyl]sulfonyl]-2-methylphenoxy-acetic acid] cannot be ordered by change in vivo at 30 mg/kg: no more than 100% for the first, no more than 100% for the second.

Cc1cc(Sc2ccc(CNc3ccc(C(F)(F)F)cc3)cc2C)c(C)cc1OCC(=O)O [Compound 21, 2,5-dimethyl-4-[[2-methyl-4-[(4-trifluoromethyl-phenylamino)methyl]phenyl]sulfanyl]phenoxy-acetic acid] and O=C(O)COc1ccc(Sc2ccc(CNc3ccc(C(F)(F)F)cc3)cc2Cl)c2c1CCCC2 [Compound 22, (4-{2-chloro-4-[(4-trifluoromethyl-phenylamino)-methyl]-phenylsulfanyl}-5,6,7,8-tetrahydro-naphthalen-1-yloxy)-acetic acid] cannot be ordered by change in vivo at 30 mg/kg: greater than 100% for the first, no more than 100% for the second.
